Columns and labels:
[1] = tested on: canola (Brassica napus L; BRSNN); assay: Postemergence herbicidal activity of mixtures in cereal crops (greenhouse, visual injury); assay type: in vivo
Summary of the method: (§1)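 Visual injury, 0 = none to 100 = complete kill, rated 20–22 d after treatment versus solvent-sprayed controls. Applications were track-sprayer postemergence at 187 L/ha, at the 2nd–3rd true leaf stage, of Compound A or B esters/salts alone and in two- and three-way mixes with a second cereal herbicide. Expected mixture activity via Colby.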

[2] = tested on: kochia (Kochia scoparia L; KCHSC); assay: as above; assay type: in vivo; details: 140 g/ha alone
Summary of the method: as §1

| SMILES | BRSNN Ob ([1]; 8.75 g/ha alone) [%] | BRSNN Ob ([1]; 17.5 g/ha alone) [%] | BRSNN Ob ([1]; 35 g/ha alone) [%] | BRSNN Ob ([1]; 70 g/ha alone) [%] | KCHSC Ob [2] [%] |
| --- | --- | --- | --- | --- | --- |
| COC(=O)c1nc(-c2ccc(Cl)c(OC)c2F)nc(N)c1Cl [Compound B Methyl, 6-amino-5-chloro-2-(4-chloro-2-fluoro-3-methoxyphenyl)pyrimidine-4-carboxylic acid methyl ester] | 20 | 35 | 50 | 55 |  |
| O=C(O)c1c(Cl)ccc2cc(Cl)cnc12 [Quinclorac] |  |  |  |  | 0 |
